Values joined by “and” are separate entries in the source; they are usually repeats but may differ in a detail not shown here. Equal values may be shown once. Read-outs that look alike come from different tables or passages of the source.
Key:
[1] = Liver Microsome Stability Assay (mouse); conditions: mouse liver microsomes, with NADPH, 1.0 uM compound
Method: (§1) Stability of a compound was assessed in the presence of liver microsomes from various sources—mouse, rat, monkey and human liver microsomes. 1.0 uM compound, 0.4% DMSO in 0.1 M Potassium Phosphate with 1.0 mg/mL liver microsomes, were incubated at 37° C. with or without 1 mM NADPH. The samples were quenched at 0, and 30 minutes.

[2] = test system: IL-2-FL/Gaussia Luciferase; experiment: Dox Induced IL2-FL-Gluc Assay; format: cell-based; conditions: for IC50: 24 hr Dox induction, 293FRT/TO cells, read-out: 24 hr Dox Inducible IL2FLGluc 293FRT/TO: Mean IC50; for 24 hr Dox Inducible IL2FLGluc 293FRT/TO: IL2/PD1: ratio of IL2FLGluc IC50 to PD1ssGluc IC50
Outline: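 A hygromycin- and blasticidin-resistant 293 T-REx clone carrying inducible IL-2–Gaussia luciferase (full-length IL-2, residues 1-153) serves as the cell system. After overnight plating, the cells get test compounds together with doxycycline in DMSO/media and are incubated at 37° C, 5% CO2.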

[3] = test system: multiple myeloma cell line U266B1; experiment: U266 Cell Viability Assay; format: cell-based, human; conditions: Homo sapiens, U-266, 48 h, U266B1 cells, Celltiter-Glo
Outline: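 After growth in serum-supplemented RPMI 1640, cells received serially diluted compound in DMSO/media and were kept 48 hours before a CellTiter-Glo luminescence readout.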

[4] = Liver Microsome Stability Assay (monkey); conditions: monkey liver microsomes, with NADPH, 1.0 uM compound
Method: as §1

[5] = test system: multiple myeloma cell line NCI-H929; experiment: H929 Cell Viability Assay; format: cell-based, human; conditions: Homo sapiens, NCI-H929, 48 h, NCI-H929 cells, Celltiter-Glo
Outline: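 A 48-hour compound treatment of cells in 10% FBS RPMI medium was followed by luciferase-based viability quantification.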

[6] = test system: TNFα-FL/Gaussia Luciferase; experiment: Dox Induced TNFα-FL-Gluc Assay; format: cell-based; conditions: for IC50: 24 hr Dox induction, 293FRT/TO cells, read-out: 24 hr Dox Inducible TNFaFLGluc 293FRT/TO: Mean IC50; for 24 hr Dox Inducible TNFaFLGluc 293FRT/TO: TNF/PD1: ratio of TNFaFLGluc IC50 to PD1ssGluc IC50
Outline: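 Hygromycin/blasticidin-selected Flp-In 293 T-REx cells, TNFα-FL/Gaussia luciferase fusion under T-REx control; overnight plating, then compound in DMSO/media with doxycycline at 37 °C, 5% CO2; stereo-undefined structures tested as mixtures.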

[7] = test system: PD1-ss+10aa/Gaussia Luciferase; experiment: Dox-Induced PD1-ss-Gluc Assay; format: cell-based; conditions: 24 hr Dox induction, 293FRT/TO cells, read-out: 24 hr Dox Inducible PD1ssGluc 293FRT/TO: Mean IC50
Outline: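 Gaussia luciferase fused downstream of the PD1 signal peptide plus 10 residues was expressed on doxycycline induction in stably transfected Flp-In 293 T-REx cells. Compounds were added with doxycycline and incubated at 37 °C, 5% CO2.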

[8] = Liver Microsome Stability Assay (rat); conditions: rat liver microsomes, with NADPH, 1.0 uM compound
Method: as §1

[9] = test system: HER3-ss+4aa/Gaussia Luciferase; experiment: Dox-Induced Her3-ss-Gluc Assay; format: cell-based; conditions: 24 hr Dox induction, 293FRT/TO cells, read-out: 24 hr Dox Inducible Her3(ss + 4)Gluc 293FRT/TO: Mean IC50
Outline: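 Doxycycline-inducible HER3 signal sequence+4aa/Gaussia luciferase construct, stably integrated in Flp-In 293 T-REx cells; compound dilutions applied with doxycycline at 37° C., 5% CO2.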

[10] = Liver Microsome Stability Assay (human); conditions: human liver microsomes, with NADPH, 1.0 uM compound
Method: as §1

[11] = '<=>' given where both are I.A.

Row | Structure (SMILES) | Liver Microsome Stability (Multiple Species): Mouse - % Remaining after 30 min w/NADPH [1] | IC50 [2] [nM] | EC50 [3] [nM] | Liver Microsome Stability (Multiple Species): Monkey - % Remaining after 30 min w/NADPH [4] | EC50 [5] [nM] | IC50 [6] [nM] | IC50 [7] [nM] | Liver Microsome Stability (Multiple Species): Rat - % Remaining after 30 min w/NADPH [8] | IC50 [9] [nM] | Liver Microsome Stability (Multiple Species): Human - % Remaining after 30 min w/NADPH [10] | IC50 ([2]; mean) [nM] | IC50 ([6]; mean) [nM] | IC50 ([7]; mean) [nM] | IC50 ([9]; mean) [nM] | 24 hr Dox Inducible IL2FLGluc 293FRT/TO: IL2/PD1 [2] | 24 hr Dox Inducible TNFaFLGluc 293FRT/TO: TNF/PD1 [6] | 24 hr Dox Inducible IL2FLGluc 293FRT/TO: IL2/PD1 [2, 11] | 24 hr Dox Inducible TNFaFLGluc 293FRT/TO: TNF/PD1 [6, 11]
1 | NCCOc1ccc(N2CCC[C@@H]2c2csc(NC(=O)c3cccn3Cc3ccnc(F)c3)n2)cc1 [Compound A101, (R)-N-(4-(1-(4-(2-aminoethoxy)phenyl)pyrrolidin-2-yl)thiazol-2-yl)-1-((2-fluoropyridin-4-yl)methyl)-1H-pyrrole-2-carboxamide] | 62.7% | 94.3 | 12800 | 14.5% | 1270 | 379 | 47.9 | 76.5% | 68.2 | 2.2% | – | – | – | – | 2 | 7.92 | – | –
2 | O=C(Nc1nc([C@H]2CCCN2c2ccc(C(F)(F)F)cc2)cs1)c1cccn1Cc1ccncc1 [Compound A28, (R)-1-(pyridin-4-ylmethyl)-N-(4-(1-(4-(trifluoromethyl)phenyl)pyrrolidin-2-yl)thiazol-2-yl)-1H-pyrrole-2-carboxamide] | 30.3% | 10.8 | 10100 | 3.97% | 251 | 137 | 5.73 | 51.5% | 11.6 | 16.4% | – | – | – | – | 1.9 | 23.9 | – | –
3 | CC(C)Oc1ccc(N2CCC[C@@H]2c2csc(NC(=O)c3cccn3Cc3ccncc3)n2)cc1 [Compound A5, (R)-N-(4-(1-(4-isopropoxyphenyl)pyrrolidin-2-yl)thiazol-2-yl)-1-(pyridin-4-ylmethyl)-1H-pyrrole-2-carboxamide] | 13% | 22.7 | > 25000 | 4.26% | 448 | 87 | 14.7 | 26.5% | 25.8 | 10.4% | – | – | – | – | 1.5 | 5.92 | – | –

The next lines start with results.

Row | Liver Microsome Stability (Multiple Species): Mouse - % Remaining after 30 min w/NADPH [1] | IC50 [2] [nM] | EC50 [3] [nM] | Liver Microsome Stability (Multiple Species): Monkey - % Remaining after 30 min w/NADPH [4] | EC50 [5] [nM] | IC50 [6] [nM] | IC50 [7] [nM] | Liver Microsome Stability (Multiple Species): Rat - % Remaining after 30 min w/NADPH [8] | IC50 [9] [nM] | Liver Microsome Stability (Multiple Species): Human - % Remaining after 30 min w/NADPH [10] | IC50 ([2]; mean) [nM] | IC50 ([6]; mean) [nM] | IC50 ([7]; mean) [nM] | IC50 ([9]; mean) [nM] | Structure (SMILES) | 24 hr Dox Inducible IL2FLGluc 293FRT/TO: IL2/PD1 [2] | 24 hr Dox Inducible TNFaFLGluc 293FRT/TO: TNF/PD1 [6] | 24 hr Dox Inducible IL2FLGluc 293FRT/TO: IL2/PD1 [2, 11] | 24 hr Dox Inducible TNFaFLGluc 293FRT/TO: TNF/PD1 [6, 11]
4 | 2.42% | > 25000 | > 25000 | 0.13% | > 25000 | > 25000 | 68.3 | 6.38% | > 25000 | 0.13% | – | – | – | – | CC(C)n1cnc(/C=C/c2csc(NC(=O)c3cccn3Cc3ccncc3)n2)c1 [Compound B37, (E)-N-(4-(2-(1-isopropyl-1H-imidazol-4-yl)vinyl)thiazol-2-yl)-1-(pyridin-4-ylmethyl)-1H-pyrrole-2-carboxamide] | >370 | >366 | – | –
5 | 21% | – | > 25000 | 2.02% | > 25000 | – | – | 10.9% | – | 24.4% | 4670 | 19200 | 1750 | 3270 | O=C(Nc1nc([C@H]2CCCN2c2ccccc2)cs1)c1cccn1CC1CCOC1 (stereo partly drawn) [Compound C56, N-(4-((R)-1-phenylpyrrolidin-2-yl)thiazol-2-yl)-1-((tetrahydrofuran-3-yl)methyl)-1H-pyrrole-2-carboxamide] | – | – | 2.7 | 11
6 | 11.1% and 10.1% | 3230 | 15300 | 0.25% and 0.24% | 11300 | 11700 | 320 | 6.87% and 5.01% | 1960 | 2.94% and 2.65% | – | – | – | – | Cc1cn(C(C)C)nc1/C=C/c1csc(NC(=O)c2cccn2Cc2ccnc(F)c2)n1 [Compound B83, (E)-1-((2-fluoropyridin-4-yl)methyl)-N-(4-(2-(1-isopropyl-4-methyl-1H-pyrazol-3-yl)vinyl)thiazol-2-yl)-1H-pyrrole-2-carboxamide] | 10 | 36.6 | – | –
7 | 2.75% | – | > 25000 | 0.1% | 6730 | – | – | 1.43% | – | 0.43% | 771 | 2050 | 320 | 645 | CC(=O)N1CCC(O[C@@H]2C[C@H](c3csc(NC(=O)c4cccn4Cc4ccncc4)n3)N(c3ccccc3)C2)CC1 [Compound E40, N-(4-((2R,4R)-4-((1-acetylpiperidin-4-yl)oxy)-1-phenylpyrrolidin-2-yl)thiazol-2-yl)-1-(pyridin-4-ylmethyl)-1H-pyrrole-2-carboxamide] | – | – | 2.4 | 6.42
8 | 6.17% | – | > 25000 | 2.07% | 18000 | – | – | 4.14% | – | 3% | 773 | 11400 | 338 | 629 | O=C(Nc1nc([C@H]2CCCN2c2ccccc2)cs1)c1cccn1Cc1ccnc(Br)c1 [Compound E23, (R)-1-((2-bromopyridin-4-yl)methyl)-N-(4-(1-phenylpyrrolidin-2-yl)thiazol-2-yl)-1H-pyrrole-2-carboxamide] | – | – | 2.3 | 33.8
9 | 14% | > 25000 | 14600 | 0.07% | 10100 | > 25000 | 348 | 19.9% | 18200 | 0.5% | – | – | – | – | CC(C)n1cnc(/C=C/c2csc(NC(=O)c3cccn3Cc3cc(F)nc(F)c3)n2)c1 [Compound B68, (E)-1-((2,6-difluoropyridin-4-yl)methyl)-N-(4-(2-(1-isopropyl-1H-imidazol-4-yl)vinyl)thiazol-2-yl)-1H-pyrrole-2-carboxamide] | >72 | >71.9 | – | –

From patent US20230286973A1, “PROTEIN SECRETION INHIBITORS” (KEZAR LIFE SCIENCES, priority 2020, published 2023)
